Test results from PubChem BioAssay AID256 (DTP/NCI, 2004).
Values joined by “and” are separate entries in the source; they are usually repeats but may differ in a detail not shown here. Identical values can stand only once. Toxic doses and inconclusive results are not listed.

System: CD2F1 mice, L1210 leukemia ip, survival T/C
Experiment: NCI In Vivo Anticancer Drug Screen. Data for tumor model L1210 Leukemia (intraperitoneal) in CD2F1 (CDF1) mice
Conditions: higher = longer survival
How it was run: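 Compound-dosed mice with transplantable tumor versus matched vehicle controls; endpoint ratio T/C reported.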

[1] = endpoint: mean survival time, dose: 100.0 mg/kg/injection, schedule: Q01DX001 (ip), vehicle: saline with Tween-80
[2] = endpoint: mean survival time, dose: 12.5 mg/kg/injection, schedule: Q01DX005 (ip), vehicle: other
[3] = endpoint: mean survival time, dose: 25.0 mg/kg/injection, schedule: Q01DX005 (ip), vehicle: other
[4] = endpoint: mean survival time, dose: 50.0 mg/kg/injection, schedule: Q01DX005 (ip), vehicle: other
[5] = endpoint: mean survival time, dose: 100.0 mg/kg/injection, schedule: Q01DX009 (ip), vehicle: saline with Tween-80
[6] = endpoint: mean survival time, dose: 200.0 mg/kg/injection, schedule: Q01DX009 (ip), vehicle: saline with Tween-80
[7] = endpoint: mean survival time, dose: 400.0 mg/kg/injection, schedule: Q01DX009 (ip), vehicle: saline with Tween-80
[8] = endpoint: mean survival time, dose: 50.0 mg/kg/injection, schedule: Q04DX002 (ip), vehicle: saline with Tween-80

With `O=C(C=C(C(F)(F)F)C(F)(F)F)c1cccc(S(=O)(=O)F)c1` the T/C [1] was 107 % of control.

In the case of `CCSC(C(OC(C)=O)C(OC(C)=O)C(COC(C)=O)OC(C)=O)n1cc(F)c(=O)[nH]c1=O` (stereo unspecified), the T/C [2] is reported as 100 % of control and 104 % of control, the T/C [3] is reported as 98 % of control and 105 % of control and the T/C [4] is reported as 88 % of control and 98 % of control. The T/C (endpoint: mean survival time, dose: 100.0 mg/kg/injection, schedule: Q01DX005 (ip), vehicle: other) was 98 % of control and 105 % of control and the T/C (endpoint: mean survival time, dose: 200.0 mg/kg/injection, schedule: Q01DX005 (ip), vehicle: other) was 94 % of control and 107 % of control.

In the case of `CC(C)(CCC(C)(C)NCCCN)NCCCN`, the T/C (endpoint: mean survival time, dose: 12.5 mg/kg/injection, schedule: Q01DX009 (ip), vehicle: water) is reported as 94 % of control, the T/C (endpoint: mean survival time, dose: 25.0 mg/kg/injection, schedule: Q01DX009 (ip), vehicle: water) is reported as 97 % of control and the T/C (endpoint: mean survival time, dose: 50.0 mg/kg/injection, schedule: Q01DX009 (ip), vehicle: water) is reported as 109 % of control.

In the case of `OCCN=Cc1cccs1`, the T/C [5] is reported as 101 % of control, the T/C [6] is reported as 95 % of control and the T/C [7] is reported as 110 % of control.

`O=C(O)C(O)C(O)C(O)C(O)C(O)CO.[NH-]C1CCCCC1[NH-].[Pt+2]` (stereo unspecified) was tested, and the T/C (endpoint: median survival time, dose: 12.5 mg/kg/injection, schedule: Q04DX003 (ip), vehicle: saline) was 153 % of control and 178 % of control, the T/C (endpoint: median survival time, dose: 25.0 mg/kg/injection, schedule: Q04DX003 (ip), vehicle: saline) was 266 % of control and 297 % of control and the T/C (endpoint: median survival time, dose: 50.0 mg/kg/injection, schedule: Q04DX003 (ip), vehicle: saline) was 175 % of control and 375 % of control. For the same compound, the T/C (endpoint: median survival time, dose: 100.0 mg/kg/injection, schedule: Q04DX003 (ip), vehicle: saline) was 103 % of control.

For `COC(=O)c1cc([N+](=O)[O-])c(Sc2ncnc3nc[nH]c23)c([N+](=O)[O-])c1`, the T/C (endpoint: mean survival time, dose: 11.0 mg/kg/injection, schedule: Q01DX005 (ip), vehicle: other) was 103 % of control, the T/C [2] was 110 % of control and the T/C (endpoint: mean survival time, dose: 16.5 mg/kg/injection, schedule: Q01DX005 (ip), vehicle: other) was 124 % of control. For the same compound, the T/C [3] was 95 % of control and the T/C [4] was 115 % of control.

In the case of `O=C(CCl)NC(=O)CCl`, the T/C (endpoint: mean survival time, dose: 25.0 mg/kg/injection, schedule: Q01DX009 (ip), vehicle: saline sonified) is reported as 90 % of control, the T/C (endpoint: mean survival time, dose: 50.0 mg/kg/injection, schedule: Q01DX009 (ip), vehicle: saline sonified) is reported as 104 % of control and the T/C (endpoint: mean survival time, dose: 100.0 mg/kg/injection, schedule: Q01DX009 (ip), vehicle: saline sonified) is reported as 90 % of control.

For `CCOC(=O)COC(=O)CN1C(=O)c2ccccc2C1=O`, the T/C (endpoint: mean survival time, dose: 50.0 mg/kg/injection, schedule: Q01DX001 (ip), vehicle: water) was 93 % of control, the T/C (endpoint: mean survival time, dose: 100.0 mg/kg/injection, schedule: Q01DX001 (ip), vehicle: water) was 98 % of control and the T/C (endpoint: mean survival time, dose: 200.0 mg/kg/injection, schedule: Q01DX001 (ip), vehicle: water) was 104 % of control. For the same compound, the T/C (endpoint: mean survival time, dose: 400.0 mg/kg/injection, schedule: Q01DX001 (ip), vehicle: water) was 94 % of control.

With `NNc1ccc(-c2ccc(NN)cc2)cc1` the T/C [5] was 101 % of control, the T/C [6] was 95 % of control and the T/C [7] was 96 % of control.

With `COc1ccc(C(CO)CC(=O)NCCN(C)C)cc1` (stereo unspecified) the T/C (endpoint: mean survival time, dose: 100.0 mg/kg/injection, schedule: Q04DX002 (ip), vehicle: saline) was 100 % of control and the T/C (endpoint: mean survival time, dose: 200.0 mg/kg/injection, schedule: Q04DX002 (ip), vehicle: saline) was 107 % of control.

For `COc1cc([N+](=O)[O-])ccc1NC(=O)NCc1ccccc1`, the T/C [8] was 89 % of control and 94 % of control, the T/C [5] was 100 % of control and the T/C (endpoint: mean survival time, dose: 100.0 mg/kg/injection, schedule: Q04DX002 (ip), vehicle: saline with Tween-80) was 88 % of control and 96 % of control and 97 % of control. The T/C [6] was 95 % of control, the T/C (endpoint: mean survival time, dose: 200.0 mg/kg/injection, schedule: Q04DX002 (ip), vehicle: saline with Tween-80) was 93 % of control and 105 % of control and the T/C [7] was 103 % of control. For the same compound, the T/C (endpoint: mean survival time, dose: 400.0 mg/kg/injection, schedule: Q04DX002 (ip), vehicle: saline with Tween-80) was 93 % of control.

For `COc1cc([N+](=O)[O-])c(C)[n+]([O-])n1`, the T/C (endpoint: mean survival time, dose: 25.0 mg/kg/injection, schedule: Q04DX002 (ip), vehicle: saline with Tween-80) was 96 % of control and the T/C [8] was 104 % of control.

With `COc1c(O)ccc(/C=C2/SC(=S)NC2=O)c1[N+](=O)[O-]` the T/C [1] was 101 % of control.

For `N=C(N)SCCc1ccccc1`, the T/C (endpoint: mean survival time, dose: 12.5 mg/kg/injection, schedule: Q01DX001 (ip), vehicle: saline) was 95 % of control, the T/C (endpoint: mean survival time, dose: 25.0 mg/kg/injection, schedule: Q01DX001 (ip), vehicle: saline) was 100 % of control and the T/C (endpoint: mean survival time, dose: 50.0 mg/kg/injection, schedule: Q01DX001 (ip), vehicle: saline) was 103 % of control.
